Patent US4910021A, “Targeted enternal delivery system” (priority 1985, dated 1990)
Where two headings read alike, the source gives them in different places.

Legend:
rats = conditions: intrajejunal injection in presence of Cetamacrogol 1000, rats; cited from earlier work
blood glucose = test: Hypoglycemia effect in rats after oral (coated capsules) or intraperitoneal insulin; format: in vivo, rat (Hebrew University strain male rats); set-up: AUC (area under the % glucose reduction versus time curve): unit not given beside the values; conditions: i.p., 4 iu, 15 iu kg^-1, rats
[1] = rectal, dogs, cited from earlier work

For “insulin: porcine insulin Leo Neutral 100 iu ml^-1 (Nordisk Gentofte); i.p. 4 iu neutral insulin”, the hypoglycemia (rats) is listed as “significant hypoglycemia”, the “AUC (area under the % glucose reduction versus time curve)” value (blood glucose) is listed as 258 and the “Cmax (maximum % glucose reduction)” value (blood glucose) is listed as 58%. For the same substance, the “tmax (time of the maximum effect)” value (blood glucose) was 2 h, the bioavailability ([1]; before improvement by post-administration of promoter) was 19.4% and the bioavailability ([1]; with post-administration of promoter (enamine)) was 38.2%.
